Values quoted from earlier work as cited in patent US5605915A, “Acetylenes disubstituted with a 5 substituted tetrahydronaphthyl group and with an aryl or heteroaryl group having retinoid-like biological activity” (Allergan, priority 1996, dated 1997).

System: ornithine decarboxylase (ODC)
Conditions: literature statement

For `CC1=C(/C=C/C(C)=C/C=C/C(C)=C/C(=O)O)C(C)(C)CCC1` [Retinoic acid], the “effect on ODC activity” value is given as “inhibits this induction of ODC activity by TPA”.

For `CCCCCCCCCCCCCC(=O)O[C@@H]1[C@@H](C)[C@@]2(O)[C@@H](C=C(CO)C[C@]3(O)C(=O)C(C)=C[C@@H]23)[C@@H]2C(C)(C)[C@]12OC(C)=O` [12-0-tetradecanoylphorbol-13-acetate], the “effect on ODC activity” value is given as “induces ODC activity”.
